Measurements as given in patent US20230405026A1, “A Method of Treating Depression by Immune Modulation” (Mynd Life Sciences Inc., priority 2020, published 2023).

Key:
ABCF1 [1] = assay: Escitalopram induction of ABCF1 in RAW macrophages, real time RT-PCR; assay type: cell-based
Description: (§1) FIG. 1—illustrates that Escitalopram induces ABCF1 in a Macrophage cell line: RAW macrophages were plated at 1×10^5 cells/well and cultured for 2 days. The cells were incubated with 0.3 mM Escitalopram for 1 hour, and then harvested for total RNA, which was extracted for real time RT-PCR specific for ABCF1 and IL-4. CT values were normalized with CT value for the housekeeping gene from the DMSO control. The difference in the expression after drug treatment is consistent with polarization towards an M2-like phenotype (data were consistent in 3 separate experiments).
(§2) Additionally, noradrenergic or serotonin-norepinephrine reuptake inhibitors used to treat major depressive disorder have anti-inflammatory properties in vitro^55. […] Mechanistically, antidepressants likely mediate this through a reduction in pro-inflammatory cytokines IL-1b, TNFα, and IL-6 with a reciprocal increase in anti-inflammatory cytokines including […]. Studies have also shown that single nucleotide polymorphisms in IL-6 and IL-11, and mRNA levels of TNFα, are predictive of clinical response to the SSRI, escitalopram^63,64. Also, escitalopram modulates mRNA levels of cytokines in mouse brain^65 and decreases cytokine mRNA levels in the circulating immune cells of depression patients^60. […]

IL-4 = assay: Escitalopram induction of IL-4 in RAW macrophages, real time RT-PCR; assay type: cell-based; details: RAW macrophage cell line, 0.3 mM Escitalopram, 1 hour, normalized to housekeeping gene, vs DMSO control (FIG. 1)
Description: as §1, §2

ABCF1 [2] = details: peripheral blood mononuclear cells of patients responding to escitalopram treatment; cited from earlier work
ABCF1 [3] = assay: Effect of psylocibin, psylocin and analogs on ABCF1 transcription in RAW264.7, qPCR; assay type: cell-based; details: RAW264.7, 10 nM, 100 nM, 500 nM, normalized against GAPDH (FIG. 2)
Description: FIG. 2—illustrates the effect of psylocibin, psylocin and their analogs on ABCF1 transcription in a macrophage cell line. Briefly, the Macrophage cell line RAW264.7 (ATCC) were grown to 80% confluency in growth media (DMEM+ 10% FBS+ glutamine). Dilutions of psylocibin, psylocin and their analogs were made at desired final concentrations for a Dose response experiment. The concentrations' used for this experiment are: 10 nM, 100 nM, 500 nM for Psilocin, Psylocibin, 4-Acetoxy-N, N-dimthyltryptamine, O-Acetyl Psilocin Fumerate, and 4-acetoxyindole. The cells were incubated for 2 hours and then harvested for total RNA, which was extracted for real time RT-PCR specific for ABCF1. Untreated cells were used as negative control and Escitalopram at 0.3 mM was used as a positive control to activate ABCF1 expression for all the experiments. ES=escitalopram; PSYB=Psylocibin; PSIC=Psilocin; DMT=4-Acetoxy-N, N-dimthyltryptamine; APF=O-Acetyl Psilocin Fumerate, and AOI=4-acetoxyindole.
Preparation of Cells: • 1. Macrophage cell line RAW264.7 (ATCC) were grown to 80% confluency in growth media (DMEM+10% FBS+glutamine). • 2. Dilutions of the drugs were made at desired final concentrations for a Dose response experiment. […]
• 1. […] Normalized against the expression level of GAPDH, the fold change expression level of ABCF1 was calculated and tabulated for all treatment conditions.

Row | SMILES | induction of ABCF1 expression (ABCF1 [1]; RAW macrophage cell line, 0.3 mM Escitalopram, 1 hour, normalized to housekeeping gene, vs DMSO control (FIG. 1)) | ABCF1 induction in a macrophage cell line (in words) (ABCF1 [1]; RAW macrophages, 0.3 mM, 1 hour (FIG. 1 legend)) | induction of IL-4 expression (IL-4) | transcription of ABCF1 in PBMCs (ABCF1 [2]) | ABCF1 transcription (in words) (ABCF1 [3])
1 | CN(C)CCC[C@@]1(c2ccc(F)cc2)OCc2cc(C#N)ccc21 [Escitalopram] | approximately 20 fold | induces ABCF1 | approximately 5 fold | increased the transcription | 
2 | CN(C)CCc1c[nH]c2cccc(O)c12 [psylocin, 4-hydroxy-N,N-dimethyltryptamine] |  |  |  |  | upregulate ABCF1 transcription
